Experimental data taken from US11666642B2, “PDE5 compositions and methods for immunotherapy” (Obsidian Therapeutics, Inc., priority 2017, dated 2023).

What was measured:
Assay type in all cases: cell-based, human
[1] = tested on: hPDE5 truncation mutants (R732L) fused to AcGFP in HCT 116 cells; test: Western blot for AcGFP of hPDE5 truncation mutants with Vardenafil; conditions: 10 μM Vardenafil, 24 hours
Procedure: Protein expression analysis of the truncation mutants was performed in parallel via western blot. […] GAPDH levels were also analyzed to ensure even protein loading.

[2] = tested on: hPDE5 mutants fused to GFP in HCT116 cells; test: Sildenafil dose response of combination mutants, MFI by FACS; conditions: for MFI / SR: 24 hours
Procedure: (§1) Mean fluorescence intensity (MFI) was measured by FACS. Parental HCT116 and cells expressing OT-hPDE5N-019 wildtype construct were also included as controls. […] The destabilizing mutation coefficient ratio was calculated as the fold change in GFP intensity in the hPDE5 mutant constructs compared to the hPDE5 wildtype construct (OT-hPDE5N-019) in the absence of the ligand. Destabilizing mutation coefficient ratios less than 1 are desirable. Stabilization ratios greater than 1 are desired in DDs.

[3] = tested on: hPDE5 mutants fused to GFP in HCT116 cells; test: Vardenafil dose response of combination mutants, MFI by FACS; conditions: for MFI / SR: 24 hours
Procedure: as §1, with “expressing OT-hPDE5N-019 comprising hPDE5 wildtype construct” for “expressing OT-hPDE5N-019 wildtype construct”, “Destabilizing mutation co-efficient ratios less” for “Destabilizing mutation coefficient ratios less”

[4] = tested on: hPDE5 mutants fused to GFP in HCT116 cells; test: Tadalafil dose response of combination mutants, MFI by FACS
Procedure: (§2) The response of hPDE5 combination mutants to increasing doses of Tadalafil was tested. HCT116 cells transduced with hPDE5 constructs were treated with Tadalafil for 24 hours at doses ranging from 0.14 to 100 μM. Mean fluorescence intensity (MFI) was measured by FACS. Parental HCT116 and cells expressing OT-hPDE5N-019 comprising hPDE5 wildtype construct were also included as controls. The response of the combination mutants to Tadalafil was compared to the response of the single mutant construct OT-hPDE5N-020. The stabilization ratio (SR) was calculated as the fold change in GFP intensity in Tadalafil treated samples compared to treatment with DMSO (i.e. in the absence of ligand) with the same construct. The destabilizing mutation coefficient was calculated as the fold change in GFP intensity in the hPDE5 mutant constructs compared to the hPDE5 wildtype construct (OT-hPDE5N-0019) in the absence of the ligand. Destabilizing mutation coefficient less than 1 are desirable. Stabilization ratios greater than 1 are desired in DDs.

[5] = tested on: hPDE5 mutants fused to GFP in HCT116 cells; test: Comparative analysis of hPDE5 ligands: stabilization ratios at the highest concentrations
Procedure: as §1
as §1, with “expressing OT-hPDE5N-019 comprising hPDE5 wildtype construct” for “expressing OT-hPDE5N-019 wildtype construct”, “Destabilizing mutation co-efficient ratios less” for “Destabilizing mutation coefficient ratios less”
as §2

[6] = tested on: hPDE5 mutants fused to GFP in HCT116 cells; test: Response to Sildenafil (5 or 0.5 μM) over time, MFI by FACS
Procedure: Mean fluorescence intensity (MFI) was measured by FACS. […] The destabilizing mutation coefficient was calculated as the fold change in GFP intensity in the hPDE5 mutant constructs compared to the hPDE5 wildtype construct (OT-hPDE5N-019) in the absence of the ligand. Destabilizing mutation coefficient less than 1 are desirable. Stabilization ratios greater than 1 are desired in DDs. The results and stabilization ratios for time course experiments with 5 or 0.5 μM are presented in Table 30 and Table 31 respectively.

[7] = tested on: hPDE5 mutants fused to GFP in HCT116 cells; test: Vardenafil dose response 48 hours, fold change in GFP MFI over DMSO; conditions: 0.1 and 0.3 micro molar
Procedure: Combination mutants were generated as described in Example 9. […] Mean fluorescence intensity (MFI) of GFP was measured by FACS.

In the case of “OT-hPDE5N-020: construct consisting of E535-Q860 amino acids of hPDE5 with the R732L mutant, SG linker, AcGFP; single mutant construct”, the “AcGFP protein (western blot) with Vardenafil” value [1] was “showed vardenafil dependent stabilization”, the MFI ([2]; DMSO, HCT116) was 6172 and the SR ([2]; Sildenafil 0.04 μM vs DMSO) was 0.86. The MFI ([2]; Sildenafil 0.04 μM) was 5299, the SR ([2]; Sildenafil 0.12 μM vs DMSO) was 1.04 and the MFI ([2]; Sildenafil 0.12 μM) was 6441. The SR ([2]; Sildenafil 0.37 μM vs DMSO) was 2.06, the MFI ([2]; Sildenafil 0.37 μM) was 12739 and the SR ([2]; Sildenafil 1.11 μM vs DMSO) was 2.58. It also gave an MFI ([2]; Sildenafil 1.11 μM) of 15952, an SR ([2]; Sildenafil 3.33 μM vs DMSO) of 3.82 and an MFI ([2]; Sildenafil 3.33 μM) of 23549. For the same substance, the SR ([2]; Sildenafil 10 μM vs DMSO) was 4.49, the MFI ([2]; Sildenafil 10 μM) was 27693 and the SR ([2]; Sildenafil 30 μM vs DMSO) was 7.78. For the same substance, the MFI ([2]; Sildenafil 30 μM) was 47992, the “destabilizing mutation co-efficient ratio” value ([2]; Sildenafil dose response experiment, absence of ligand, vs OT-hPDE5N-019) was 0.1 and the MFI ([3]; DMSO, HCT116) was 7829. It also gave an SR ([3]; Vardenafil 0.04 μM vs DMSO) of 1.88, an MFI ([3]; Vardenafil 0.04 μM) of 14745 and an SR ([3]; Vardenafil 0.12 μM vs DMSO) of 2.15. The MFI ([3]; Vardenafil 0.12 μM) was 16866, the SR ([3]; Vardenafil 0.37 μM vs DMSO) was 3.17 and the MFI ([3]; Vardenafil 0.37 μM) was 24847. It also gave an SR ([3]; Vardenafil 1.11 μM vs DMSO) of 3.94, an MFI ([3]; Vardenafil 1.11 μM) of 30879 and an SR ([3]; Vardenafil 3.33 μM vs DMSO) of 4.54. For the same substance, the MFI ([3]; Vardenafil 3.33 μM) was 35564, the SR ([3]; Vardenafil 10 μM vs DMSO) was 4.99 and the MFI ([3]; Vardenafil 10 μM) was 39089. It also gave an SR ([3]; Vardenafil 30 μM vs DMSO) of 9.62, an MFI ([3]; Vardenafil 30 μM) of 75323 and a destabilizing mutation coefficient ([3]; Vardenafil dose response experiment, absence of ligand, vs OT-hPDE5N-019) of 0.13. It also gave an MFI ([4]; DMSO, 24 hours, HCT116) of 3806, a destabilizing mutation coefficient ([4]; Tadalafil dose response experiment, absence of ligand, vs OT-hPDE5N-019) of 0.1 and a Stabilization ratio ([5]; Sildenafil (30 μM)) of 7.78. For the same substance, the Stabilization ratio ([5]; Tadalafil (100 μM)) was 8.94, the Stabilization ratio ([5]; Vardenafil (30 μM)) was 9.62 and the “stabilization ratios over time, Sildenafil 0.5 μM” value ([6]; 0-72 hours, HCT116) was “greater stabilization”. For the same substance, the MFI ([6]; Sildenafil 0.5 μM, 0 hours) was 2727, the MFI ([6]; Sildenafil 0.5 μM, 4 hours) was 4127 and the Stabilization ratio ([6]; Sildenafil 0.5 μM, 4 hours) was 1.51. For the same substance, the MFI ([6]; Sildenafil 0.5 μM, 8 hours) was 5461, the Stabilization ratio ([6]; Sildenafil 0.5 μM, 8 hours) was 2.00 and the MFI ([6]; Sildenafil 0.5 μM, 12 hours) was 9058. The Stabilization ratio ([6]; Sildenafil 0.5 μM, 12 hours) was 3.32, the MFI ([6]; Sildenafil 0.5 μM, 16 hours) was 14469 and the Stabilization ratio ([6]; Sildenafil 0.5 μM, 16 hours) was 5.31. The MFI ([6]; Sildenafil 0.5 μM, 20 hours) was 16142, the Stabilization ratio ([6]; Sildenafil 0.5 μM, 20 hours) was 5.92 and the MFI ([6]; Sildenafil 0.5 μM, 24 hours) was 20524. For the same substance, the Stabilization ratio ([6]; Sildenafil 0.5 μM, 24 hours) was 7.53, the MFI ([6]; Sildenafil 0.5 μM, 48 hours) was 45754 and the Stabilization ratio ([6]; Sildenafil 0.5 μM, 48 hours) was 16.78. The MFI ([6]; Sildenafil 0.5 μM, 72 hours) was 58786, the Stabilization ratio ([6]; Sildenafil 0.5 μM, 72 hours) was 21.56 and the MFI ([6]; Sildenafil 5 μM, 0 hours) was 2668. It also gave an MFI ([6]; Sildenafil 5 μM, 4 hours) of 4236, a Stabilization ratio ([6]; Sildenafil 5 μM, 4 hours) of 1.59 and an MFI ([6]; Sildenafil 5 μM, 8 hours) of 5672. The Stabilization ratio ([6]; Sildenafil 5 μM, 8 hours) was 2.13, the MFI ([6]; Sildenafil 5 μM, 12 hours) was 9097 and the Stabilization ratio ([6]; Sildenafil 5 μM, 12 hours) was 3.41. It also gave an MFI ([6]; Sildenafil 5 μM, 16 hours) of 14855, a Stabilization ratio ([6]; Sildenafil 5 μM, 16 hours) of 5.57 and an MFI ([6]; Sildenafil 5 μM, 20 hours) of 15529. It also gave a Stabilization ratio ([6]; Sildenafil 5 μM, 20 hours) of 5.82, an MFI ([6]; Sildenafil 5 μM, 24 hours) of 20955 and a Stabilization ratio ([6]; Sildenafil 5 μM, 24 hours) of 7.85. It also gave an MFI ([6]; Sildenafil 5 μM, 48 hours) of 46604, a Stabilization ratio ([6]; Sildenafil 5 μM, 48 hours) of 17.47 and an MFI ([6]; Sildenafil 5 μM, 72 hours) of 58479. The Stabilization ratio ([6]; Sildenafil 5 μM, 72 hours) was 21.92 and the “ligand dependent stabilization (fold change in MFI over DMSO) at lower doses of Vardenafil” value [7] was “observed at lower doses i.e. 0.1 and 0.3 micro molar concentrations of Vardenafil”.
